# In ChEMBL document CHEMBL3046609, “Herbicidal properties of the thaxtomin group of phytotoxins” (2001):
# The source made the active and inactive calls. No cut-off for these calls is given here.
# Legend:
# Helianthus annuus [1] = assay: Herbicidal activity against Helianthus annuus (sunflower) assessed as visual injury at 10 ug/seedling applied to meristem after 1 week relative to control; format: functional
# Helianthus annuus [2] = assay: Herbicidal activity against Helianthus annuus (sunflower) assessed as visual injury at 100 ug/seedling applied to meristem after 1 week relative to control; format: functional
# [3] = system: Agrostis stolonifera var. palustris; assay: Herbicidal activity against Agrostis stolonifera var. palustris assessed as stunting after 9 days by agarose-based test; format: functional, organism-based
# Helianthus annuus [4] = assay: Herbicidal activity against Helianthus annuus (sunflower) assessed as visual injury at 1 ug/seedling applied to cotyledon after 1 week relative to control; format: functional
# Helianthus annuus [5] = assay: Herbicidal activity against Helianthus annuus (sunflower) assessed as visual injury at 10 ug/seedling applied to cotyledon after 1 week relative to control; format: functional
# Helianthus annuus [6] = assay: Herbicidal activity against Helianthus annuus (sunflower) assessed as visual injury at 100 ug/seedling applied to cotyledon after 1 week relative to control; format: functional
# Helianthus annuus [7] = assay: Herbicidal activity against Helianthus annuus (sunflower) assessed as visual injury at 1 ug/seedling applied to meristem after 1 week relative to control; format: functional
# Abutilon theophrasti [8] = assay: Herbicidal activity against Abutilon theophrasti (velvetleaf) assessed as visual injury at 1 ug/seedling applied to leaf after 1 week relative to control; format: functional
# Abutilon theophrasti [9] = assay: Herbicidal activity against Abutilon theophrasti (velvetleaf) assessed as visual injury at 10 ug/seedling applied to leaf after 1 week relative to control; format: functional
# Abutilon theophrasti [10] = assay: Herbicidal activity against Abutilon theophrasti (velvetleaf) assessed as visual injury at 100 ug/seedling applied to leaf after 1 week relative to control; format: functional
# Abutilon theophrasti [11] = assay: Herbicidal activity against Abutilon theophrasti (velvetleaf) assessed as visual injury at 1 ug/seedling applied to meristem after 1 week relative to control; format: functional
# Abutilon theophrasti [12] = assay: Herbicidal activity against Abutilon theophrasti (velvetleaf) assessed as visual injury at 10 ug/seedling applied to meristem after 1 week relative to control; format: functional
# Abutilon theophrasti [13] = assay: Herbicidal activity against Abutilon theophrasti (velvetleaf) assessed as visual injury at 100 ug/seedling applied to meristem after 1 week relative to control; format: functional
# Arabidopsis thaliana [14] = assay: Growth inhibition of Arabidopsis thaliana var. Columbia assessed as root tip puffing after 9 days by agarose-based test; format: functional, organism-based
# Arabidopsis thaliana [15] = assay: Growth inhibition of Arabidopsis thaliana var. Columbia assessed as stunting after 9 days by agarose-based test; format: functional, organism-based
# [16] = system: Agrostis stolonifera var. palustris; assay: Herbicidal activity against Agrostis stolonifera var. palustris after 9 days by agarose-based test; format: functional
# Arabidopsis thaliana [17] = assay: Growth inhibition of Arabidopsis thaliana var. Columbia after 9 days by agarose-based test; format: functional
# [18] = system: Agrostis stolonifera var. palustris; assay: Herbicidal activity against Agrostis stolonifera var. palustris assessed as root tip puffing after 9 days by agarose-based test; format: functional, organism-based
# Avena fatua [19] = assay: Post-emergence growth inhibition of Avena fatua assessed as visual injury at 0.25 kg/ha after 9 days relative to control; format: functional; design: scale not given: the % may be the effect or the level left
# Avena fatua [20] = assay: Post-emergence growth inhibition of Avena fatua assessed as visual injury at 0.5 kg/ha after 9 days relative to control; format: functional; design: scale not given: the % may be the effect or the level left
# Avena fatua [21] = assay: Post-emergence growth inhibition of Avena fatua assessed as visual injury at 1 kg/ha after 9 days relative to control; format: functional; design: scale not given: the % may be the effect or the level left
# Avena fatua [22] = assay: Post-emergence growth inhibition of Avena fatua assessed as visual injury at 2 kg/ha after 9 days relative to control; format: functional; design: scale not given: the % may be the effect or the level left
# Echinochloa crus-galli [23] = assay: Post-emergence herbicidal activity against Echinochloa crus-galli (barnyard grass) assessed as visual injury at 0.25 kg/ha after 9 days relative to control; format: functional
# Echinochloa crus-galli [24] = assay: Post-emergence herbicidal activity against Echinochloa crus-galli (barnyard grass) assessed as visual injury at 0.5 kg/ha after 9 days relative to control; format: functional
# Echinochloa crus-galli [25] = assay: Post-emergence herbicidal activity against Echinochloa crus-galli (barnyard grass) assessed as visual injury at 1 kg/ha after 9 days relative to control; format: functional
# Echinochloa crus-galli [26] = assay: Post-emergence herbicidal activity against Echinochloa crus-galli (barnyard grass) assessed as visual injury at 2 kg/ha after 9 days relative to control; format: functional
# Ipomoea hederacea [27] = assay: Post-emergence herbicidal activity against Ipomoea hederacea (ivy-leaved morning glory) assessed as visual injury at 0.25 kg/ha after 9 days relative to control; format: functional
# Ipomoea hederacea [28] = assay: Post-emergence herbicidal activity against Ipomoea hederacea (ivy-leaved morning glory) assessed as visual injury at 0.5 kg/ha after 9 days relative to control; format: functional
# Ipomoea hederacea [29] = assay: Post-emergence herbicidal activity against Ipomoea hederacea (ivy-leaved morning glory) assessed as visual injury at 1 kg/ha after 9 days relative to control; format: functional
# Ipomoea hederacea [30] = assay: Post-emergence herbicidal activity against Ipomoea hederacea (ivy-leaved morning glory) assessed as visual injury at 2 kg/ha after 9 days relative to control; format: functional
# Helianthus annuus [31] = assay: Post-emergence growth inhibition of Helianthus annuus (sunflower) assessed as visual injury at 0.25 kg/ha after 9 days relative to control; format: functional; design: scale not given: the % may be the effect or the level left
# Helianthus annuus [32] = assay: Post-emergence growth inhibition of Helianthus annuus (sunflower) assessed as visual injury at 0.5 kg/ha after 9 days relative to control; format: functional; design: scale not given: the % may be the effect or the level left
# Helianthus annuus [33] = assay: Post-emergence growth inhibition of Helianthus annuus (sunflower) assessed as visual injury at 1 kg/ha after 9 days relative to control; format: functional; design: scale not given: the % may be the effect or the level left
# Helianthus annuus [34] = assay: Post-emergence growth inhibition of Helianthus annuus (sunflower) assessed as visual injury at 2 kg/ha after 9 days relative to control; format: functional; design: scale not given: the % may be the effect or the level left
# Ipomoea hederacea [35] = assay: Post-emergence herbicidal activity against Ipomoea hederacea (ivy-leaved morning glory) after 9 days; format: functional
# Avena fatua [36] = assay: Post-emergence growth inhibition of Avena fatua assessed as visual injury at 0.125 kg/ha after 9 days relative to control; format: functional; design: scale not given: the % may be the effect or the level left
# Echinochloa crus-galli [37] = assay: Post-emergence herbicidal activity against Echinochloa crus-galli (barnyard grass) assessed as visual injury at 0.125 kg/ha after 9 days relative to control; format: functional
# Ipomoea hederacea [38] = assay: Post-emergence herbicidal activity against Ipomoea hederacea (ivy-leaved morning glory) assessed as visual injury at 0.125 kg/ha after 9 days relative to control; format: functional
# Helianthus annuus [39] = assay: Post-emergence growth inhibition of Helianthus annuus (sunflower) assessed as visual injury at 0.125 kg/ha after 9 days relative to control; format: functional; design: scale not given: the % may be the effect or the level left
Structure (SMILES),Activity (Helianthus annuus [1]) [%],Activity (Helianthus annuus [2]) [%],Activity [3],Activity (Helianthus annuus [4]) [%],Activity (Helianthus annuus [5]) [%],Activity (Helianthus annuus [6]) [%],Activity (Helianthus annuus [7]) [%],Activity (Abutilon theophrasti [8]) [%],Activity (Abutilon theophrasti [9]) [%],Activity (Abutilon theophrasti [10]) [%],Activity (Abutilon theophrasti [11]) [%],Activity (Abutilon theophrasti [12]) [%],Activity (Abutilon theophrasti [13]) [%],growth inhibition (GI) (Arabidopsis thaliana [14]),growth inhibition (GI) (Arabidopsis thaliana [15]),I50 [16] [ppb],I50 (Arabidopsis thaliana [17]) [ppb],Activity [18],other results
O=C1N[C@@H](Cc2c[nH]c3cccc([N+](=O)[O-])c23)C(=O)N[C@H]1Cc1ccccc1 [DES-N-METHYLTHAXTOMIN C],0,50,Active,0,0,0,0,0,0,0,0,0,10,Active,Active,600,400,Active,–
CN1C(=O)[C@](O)(Cc2ccc(O)c(O)c2)N(C)C(=O)[C@@H]1Cc1c[nH]c2cccc([N+](=O)[O-])c12 [HYDROXYTHAXTOMIN A],–,–,Active,–,–,–,–,–,–,–,–,–,–,Active,Active,40,10,Active,–
CN1C(=O)[C@](O)(Cc2ccccc2)NC(=O)[C@@H]1Cc1c[nH]c2cccc([N+](=O)[O-])c12 [HYDROXYTHAXTOMIN C],95,100,Active,0,0,20,80,0,0,0,0,20,70,Active,Active,<40,<40,Active,–
CN1C(=O)[C@](O)(Cc2ccccc2O)N(C)C(=O)[C@@H]1Cc1c[nH]c2cccc([N+](=O)[O-])c12 [THAXTOMIN A O-ISOMER],–,–,Active,–,–,–,–,–,–,–,–,–,–,Active,Active,90,100,Active,Activity (Avena fatua [19]): 0%; Activity (Avena fatua [20]): 0%; Activity (Avena fatua [21]): 0%; Activity (Avena fatua [22]): 0%; Activity (Echinochloa crus-galli [23]): 0%; Activity (Echinochloa crus-galli [24]): 0%; Activity (Echinochloa crus-galli [25]): 0%; Activity (Echinochloa crus-galli [26]): 20%; Activity (Ipomoea hederacea [27]): 0%; Activity (Ipomoea hederacea [28]): 10%; Activity (Ipomoea hederacea [29]): 40%; Activity (Ipomoea hederacea [30]): 40%; Activity (Helianthus annuus [31]): 0%; Activity (Helianthus annuus [32]): 10%; Activity (Helianthus annuus [33]): 75%; Activity (Helianthus annuus [34]): 75%
CN1C(=O)[C@](O)(Cc2ccc(O)cc2)N(C)C(=O)[C@@H]1Cc1c[nH]c2cccc([N+](=O)[O-])c12 [THAXTOMIN A P-ISOMER],–,–,Active,–,–,–,–,–,–,–,–,–,–,Active,Active,100,190,Active,–
CN1C(=O)[C@](O)(Cc2ccccc2)N(C)C(=O)[C@@H]1Cc1c[nH]c2cccc([N+](=O)[O-])c12 [THAXTOMIN B],–,–,Active,–,–,–,–,–,–,–,–,–,–,Active,Active,–,28,Active,–
CN1C(=O)[C@H](Cc2ccccc2)NC(=O)[C@@H]1Cc1c[nH]c2cccc([N+](=O)[O-])c12 [THAXTOMIN C],30,75,Active,0,0,0,0,0,0,0,0,0,50,Active,Active,40,50,Active,GR50 (Ipomoea hederacea [35]): <125 g/ha; Activity (Avena fatua [36]): 0%; Activity (Avena fatua [19]): 0%; Activity (Avena fatua [20]): 0%; Activity (Avena fatua [21]): 0%; Activity (Echinochloa crus-galli [37]): 0%; Activity (Echinochloa crus-galli [23]): 0%; Activity (Echinochloa crus-galli [24]): 20%; Activity (Echinochloa crus-galli [25]): 40%; Activity (Ipomoea hederacea [38]): 70%; Activity (Ipomoea hederacea [27]): 80%; Activity (Ipomoea hederacea [28]): 80%; Activity (Ipomoea hederacea [29]): 80%; Activity (Helianthus annuus [39]): 30%; Activity (Helianthus annuus [31]): 30%; Activity (Helianthus annuus [32]): 30%; Activity (Helianthus annuus [33]): 70%
